The source of these data is patent US6143780A, “N-arylmethylthioanilide compounds useful for the inhibition of the replication of HIV” (Uniroyal Chemical Company, Inc., priority 1999, dated 2000).

Assay [1] deals with 181 Tyr→Cys mutation in the RT of HIV-1 strains. As to conditions: cited from earlier work.
Assay [2] deals with HIV-1 strains containing the 100 Leu→Ile mutation in their RT. The conditions noted are these: cited from earlier work.
The next assay deals with HIV-1/184-Val. Put plainly: inhibition of syncytium formation in CEM cells, HIV-1 RT mutant 184-Val. The class given is cell-based. As to conditions: Human immunodeficiency virus 1, CCRF-CEM, 96 h, read-out: EC50 184-Val. The text has this:
(§1) CEM cells were obtained from the American Tissue Cell Culture Collection (Rockville, Md.) . HIV-1 (IIIB) was originally obtained from the culture supernatant of persistently HIV-1-infected H9 cells and was provided by R. C. Gallo and M. Popovic (National Cancer Institute, National Institutes of Health, Bethesda, Md.).
(§2) The selection and characterization of the HIV-1 RT mutant strains were done as follows: HIV-1/100-Ile ("100-Ile") was selected for resistance against TIBO R82150 as described in Balzarini et al, Virology 192: 246-253 (1993); HIV-1/103-Asn ("103-Asn") was selected for resistance against TIBO R82913 as described in Balzarini et al, Virology 192: 246-253 (1993); HIV-1/106-Ala ("106-Ala") was selected for resistance against nevirapine as described in Balzarini et al, J. Virol. 67: 5353-5359 (1993); HIV-1/Lys-138 ("Lys-138") was selected for resistance against TSAO-m^3T as described in Balzarini et al, Virology 192: 246-253 (1993) and Balzarini et al, Proc. Nat. Acad. Sci. USA 90: 6952-6956 (1993); HIV-1/181-Cys ("181-Cys") was selected for resistance against pyridinone L-697,661 as described in Balzarini et al, Virology 192: 246-253 (1993); and HIV-1/188-His ("188-His") was selected for resistance against HEPT as described in Balzarini et al, Mol. Pharmocol. 44: 694-701 (1993). 188-His was then further converted to HIV-1/188-Leu ("188-Leu") upon further passage in cell culture in the absence of the HEPT. HIV-1/101-Glu ("101-Glu") and HIV-1/190-Glu ("190-Glu") were selected for resistance against the thiocarboxanilide derivative designated as UC38 as described in Balzarini et al, Antiviral Research 27: 219-236 (1995). HIV-1/184-Ile ("184-Ile") was selected for resistance against the combination of 3TC and TSAO-m^3 T as described in Balzarini et al, Molecular Pharm. 49: 882-890 (1996). HIV-1/184-Val ("184-Val") was selected for resistance against 3TC as described in Balzarini et al, Molecular Pharm. 49: 882-890 (1996).
(§3) CEM cells were suspended at ≈300,000 cells per ml of culture medium and infected with approximately 100 CCID50 (CCID50 being the 50% cell culture infective dose) of HIV-1(IIIB) (designated as "WT" in Table 3) or one of the HIV-1 RT mutant strains described above. Then 100 μl of the infected cell suspensions was added to 200 μl microtiter plate wells containing 100 μl of appropriate serial (5-fold) dilutions of the test compounds. The inhibitiory effect of the test compounds on HIV-1 induced syncytium formation in CEM cells was examined microscopically on day 4 post infection. The 50% effective concentration (EC50) was defined as the test compound concentration that inhibits syncytium formation in the HIV-1-infected cell cultures by 50%.

In the next assay the test system is HIV-1/101-Glu. Put plainly: inhibition of syncytium formation in CEM cells, HIV-1 RT mutant 101-Glu. The class given is cell-based. The conditions noted are these: Human immunodeficiency virus 1, CCRF-CEM, 96 h, read-out: EC50 101-Glu.
Source text: as §1, §2, §3

A further assay relates to HIV-1/106-Ala. Put plainly: inhibition of syncytium formation in CEM cells, HIV-1 RT mutant 106-Ala. The class given is cell-based. The conditions noted are these: Human immunodeficiency virus 1, CCRF-CEM, 96 h, read-out: EC50 106-Ala.
Source text: as §1, §2, §3

For the next assay, the system named is HIV-1/184-Ile. Put plainly: inhibition of syncytium formation in CEM cells, HIV-1 RT mutant 184-Ile. The class given is cell-based. The conditions noted are these: Human immunodeficiency virus 1, CCRF-CEM, 96 h, read-out: EC50 184-IIe.
Source text: as §1, §2, §3

The subject of a further assay is HIV-1/181-Cys. Put plainly: inhibition of syncytium formation in CEM cells, HIV-1 RT mutant 181-Cys. The class given is cell-based. As to conditions: Human immunodeficiency virus 1, CCRF-CEM, 96 h, read-out: EC50 181-Cys.
Source text: as §1, §2, §3

The subject of another assay is 138-Lys. The experiment in a line: inhibition of syncytium formation in CEM cells, HIV-1 RT mutant 138-Lys. The conditions noted are these: Human immunodeficiency virus 1, CCRF-CEM, 96 h, read-out: EC50 138-Lys. The class given is cell-based.
Source text: as §1, §2, §3

A further assay concerns HIV-1/100-Ile. The experiment in a line: inhibition of syncytium formation in CEM cells, HIV-1 RT mutant 100-Ile. The class given is cell-based. The conditions noted are these: Human immunodeficiency virus 1, CCRF-CEM, 96 h, read-out: EC50 100-Ile.
Source text: as §1, §2, §3

Another assay has as its system 103-Ala. The experiment in a line: inhibition of syncytium formation in CEM cells, HIV-1 RT mutant 103-Ala. The class given is cell-based. As to conditions: Human immunodeficiency virus 1, CCRF-CEM, 96 h, read-out: EC50 103-Ala.
Another assay has as its system HIV-1/190-Glu. Put plainly: inhibition of syncytium formation in CEM cells, HIV-1 RT mutant 190-Glu. The class given is cell-based. The conditions noted are these: Human immunodeficiency virus 1, CCRF-CEM, 96 h, read-out: EC50 190-Glu.
Source text: as §1, §2, §3

In the next assay the test system is HIV-1 (IIIB). The experiment in a line: inhibition of HIV-1(IIIB) (WT) induced syncytium formation in CEM cells. The class given is cell-based. A digest of the protocol: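 CEM cells (~300,000/ml) were infected with ~100 CCID50 of virus and exposed to serial 5-fold compound dilutions. Syncytium formation was scored microscopically on day 4 post infection; EC50 is the concentration inhibiting syncytium formation by 50%.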

The test system of another assay is HIV-1/188-His. The experiment in a line: inhibition of syncytium formation in CEM cells, HIV-1 RT mutant 188-His. As to conditions: Human immunodeficiency virus 1, CCRF-CEM, 96 h, read-out: EC50 188-His. The class given is cell-based.
Source text: as §1, §2, §3

For another assay, the system named is HIV-1/188-Leu. Put plainly: inhibition of syncytium formation in CEM cells, HIV-1 RT mutant 188-Leu. The class given is cell-based. As to conditions: Human immunodeficiency virus 1, CCRF-CEM, 96 h, read-out: EC50 188-Leu.
Source text: as §1, §2, §3

Values joined by “and” are separate entries in the source; they are usually repeats but may differ in a detail not shown here. Equal values may be shown once. Read-outs that look alike come from different tables or passages of the source.

For `Cc1ccnc2c1NC(=O)c1cccnc1N2C1CC1` [nevirapine], the “resistance of 181 Tyr→Cys mutant strains” value in assay [1] is listed as “resistant”.

`CC(C)=CCN1Cc2cccc3[nH]c(=S)n(c23)CC1C` (single isomer, unassigned) [Compound R82150]: the “resistance of 100 Leu→Ile mutant strains” value in assay [2] is on record as “resistant”.

Turning to `CC(C)=CCN1Cc2cc(Cl)cc3[nH]c(=S)n(c23)CC1C` (single isomer, unassigned) [TIBO R82913], the “resistance of 100 Leu→Ile mutant strains” value in assay [2] is listed as “resistant”.

With `Cc1occc1C(=S)Nc1ccc(Cl)c(COc2ccc(F)cc2)c1` [Compound 11], the EC50 with HIV-1/184-Val is 0.045 µg/mL; with HIV-1/101-Glu, at least 2 µg/mL; in the assay on HIV-1/106-Ala, 1.1 µg/mL; with HIV-1/184-Ile it was 0.16 µg/mL; in the assay with HIV-1/181-Cys, 0.14 µg/mL; with 138-Lys, 0.7 µg/mL. Also, the EC50 in the assay on HIV-1/100-Ile is 0.95 µg/mL; in the assay on 103-Ala, above 2 µg/mL; in the assay with HIV-1/190-Glu, at least 2 µg/mL; in the assay on HIV-1 (IIIB) (Human immunodeficiency virus 1, IIIB, CCRF-CEM, 96 h, Table 3, HIV-1(IIIB), day 4 post infection, read-out: EC50 WT), 0.065 µg/mL; in the assay with HIV-1 (IIIB) (Table 2, day 4 post infection, replicate values, read-out: EC50, Activity Against HIV-1 (IIIB)), 85.1 nM and 161 nM and 276 nM; in the assay on HIV-1/188-His, above 2 µg/mL. Further, in the assay on HIV-1/188-Leu, the EC50 is at least 2 µg/mL.

Usually EC50 stands for the midpoint of the concentration-response curve.
